Among the data in the Kinase Knowledgebase extract (Sharma et al. 2016) are IC50 and inhibition values, retold here.

Some results are limits rather than exact numbers.

One assay deals with MAPK14 (human) (UniProt Q16539). Nature of the assay: Inhibition of MAPK14 Kinase Activity.
Sequence of MAPK14 (human) (Q16539 whole entry, looked up): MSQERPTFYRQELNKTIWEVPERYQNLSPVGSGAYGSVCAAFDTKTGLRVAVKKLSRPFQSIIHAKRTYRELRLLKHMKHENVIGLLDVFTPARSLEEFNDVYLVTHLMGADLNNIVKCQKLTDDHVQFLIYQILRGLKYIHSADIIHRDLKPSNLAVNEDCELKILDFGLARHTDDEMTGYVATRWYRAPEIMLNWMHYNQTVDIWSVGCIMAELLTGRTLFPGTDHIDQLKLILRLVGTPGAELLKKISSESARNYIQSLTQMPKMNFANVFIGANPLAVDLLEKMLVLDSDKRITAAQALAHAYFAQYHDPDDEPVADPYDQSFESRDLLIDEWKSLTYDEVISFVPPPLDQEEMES
Conditions: not given
Broadly, the IC50 is the point on the concentration scale where inhibition reaches its midpoint. A higher IC50 goes with lower potency. `CCc1ccccc1NC(=O)Nc1sc(C(C)(C)C)cc1C(=O)N1CCC(=O)N(CCN(C)C)CC1` displayed an IC50 of less than 5 µM.
Same read-out and setting: under `CC1CC(=O)NCCN1C(=O)c1cc(C(C)(C)C)sc1NC(=O)Nc1cccc(Cl)c1Cl` (stereo not given) stands less than 5 µM.
Compound `CCC1(C)C(=O)N(CC(=O)NCCN(C)C)CCN1C(=O)c1cc(C(C)(C)C)sc1NC(=O)Nc1ccc(F)c(Cl)c1Cl` (stereo not given) had an IC50 of less than 5 µM.
Still for that read-out and setting: under `COC(=O)CC1(C)C(=O)NCCN1C(=O)c1[nH]c(C(C)(C)C)cc1NC(=O)Nc1ccc(F)c(Cl)c1Cl` (stereo not given) stands less than 5 µM.
Compound `Cc1cccc(Cl)c1NC(=O)Nc1cc(C(C)(C)C)sc1C(=O)N1CCNC(=O)C1(C)C` came in with an IC50 of less than 5 µM.
On the same count and under the same terms, for `CC(C)(C)c1cc(C(=O)N2CCN(CC(N)=O)C(=O)C2(C)CC(N)=O)c(NC(=O)Nc2cccc(Cl)c2Cl)s1` (stereo not given) the value was less than 5 µM; for `CONC(=O)CC1(C)C(=O)NCCN1C(=O)c1cc(C(C)(C)C)sc1NC(=O)Nc1ccc(F)c(Cl)c1Cl` (stereo not given), less than 5 µM; for `CON(C)C(=O)CN1CCN(C(=O)c2cc(C(C)(C)C)sc2NC(=O)Nc2ccc(F)c(F)c2Cl)C(C)(C)C1=O`, less than 5 µM.
`CC1(C)OCC(CNC(=O)CN2CCN(C(=O)c3cc(C(C)(C)C)sc3NC(=O)Nc3cccc(Cl)c3Cl)C(C)(C)C2=O)O1` (stereo not given) had an IC50 of less than 5 µM.
The compound `CN(C)CCN1CCN(C(=O)c2sc(C(C)(C)C)cc2NC(=O)Nc2ccc(F)c(Cl)c2Cl)C(C)(C)C1=O` yielded an IC50 of less than 5 µM.
The compound `CN(C)CCN1CCN(C(=O)c2cc(C(C)(C)C)sc2NC(=O)Nc2ccccc2Cl)CCC1=O` had an IC50 of less than 5 µM.
`CN(C)CCCNC(=O)CN1CCN(C(=O)c2cc(C(C)(C)C)sc2NC(=O)Nc2cccc(Cl)c2Cl)C(C)(C)C1=O` returned an IC50 of less than 5 µM.
Still for that read-out and setting: under `CNC(=O)[C@@H]1CCCN1C(=O)c1cc(C(C)(C)C)sc1NC(=O)Nc1ccc(OC(F)F)c(Cl)c1Cl` stands less than 5 µM; under `CC(C)(C)c1cc(C(=O)N2CCN(CC(=O)NCC(F)(F)F)C(=O)C2(C)C)c(NC(=O)Nc2cccc(Cl)c2Cl)s1`, less than 5 µM; under `CC(C)(C)c1nc(C(=O)N2CCNS(=O)(=O)CC2)c(NC(=O)Nc2cccc(Cl)c2Cl)s1`, less than 5 µM.
`CC(C)(C)c1cc(C(=O)N2CCNC(=O)C2(C)C)c(NC(=O)Nc2ccc(C#N)c3ccccc23)s1` gave a 50% inhibitory concentration (IC50) of less than 5 µM.
As to `COCOCCN1CCN(C(=O)c2cc(C(C)(C)C)sc2NC(=O)Nc2cccc(Cl)c2Cl)C(C)(C)C1=O`, the IC50 was less than 5 µM.
Regarding `CN(C)CCNC(=O)CN1CCN(C(=O)c2cc(C(C)(C)C)sc2NC(=O)Nc2cccc(Cl)c2Cl)C(C)(C)C1=O`, the IC50 was less than 5 µM.
`CC(C)(C)c1cc(C(=O)N2CCNC(=O)CC2)c(NC(=O)Nc2cc(F)cc(F)c2)s1` gave an IC50 of less than 5 µM.
In the case of `CN(C)CCN1CCN(C(=O)c2cc(C(C)(C)C)sc2NC(=O)Nc2ccccc2C(C)(C)C)C(C)(C)C1=O`, the IC50 was less than 5 µM.
On the same count and under the same terms, for `CCOC(=O)C1(C)C(=O)NCCN1C(=O)c1cc(C(C)(C)C)sc1NC(=O)Nc1cccc(Cl)c1Cl` (stereo not given) the value was less than 5 µM; for `CN(C)CCN1CCN(C(=O)c2cc(C(C)(C)C)sc2NC(=O)Nc2c(Cl)cncc2Cl)CCC1=O`, less than 5 µM.
Same read-out and setting: for `O=C1CCN(C(=O)c2cc(Cl)c(C(F)(F)F)cc2NC(=O)Nc2cccc(Cl)c2Cl)CCN1` the value was less than 5 µM; for `CC(C)(C)c1cc(C(=O)N2CCNC(=O)CC2)c(NC(=O)Nc2cccnc2Cl)s1`, less than 5 µM.
On the same count and under the same terms, under `CN(C)CCN1CCN(C(=O)c2sc(C(C)(C)C)cc2NC(=O)Nc2ccc(F)c(Cl)c2Cl)CCC1=O` stands less than 5 µM.
The compound `CC(C)(C)c1cc(C(=O)N2CCN(CC(O)CO)C(=O)C2(C)C)c(NC(=O)Nc2cccc(Cl)c2Cl)s1` (stereo not given) came in with an IC50 of less than 5 µM.
Still for that read-out and setting: for `CCc1ccccc1NC(=O)Nc1sc(C(C)(C)C)cc1C(=O)N1CCNC(=O)CC1` the value was less than 5 µM; for `CN(C)CCCCCN1CCN(C(=O)c2cc(C(C)(C)C)sc2NC(=O)Nc2cccc(Cl)c2Cl)C(C)(C)C1=O`, less than 5 µM.
Same read-out and setting: under `CCC1(C)C(=O)N(CC(=O)N(C)OC)CCN1C(=O)c1cc(C(C)(C)C)sc1NC(=O)Nc1cccc(Cl)c1Cl` (stereo not given) stands less than 5 µM; under `CN(C)CCNC(=O)CN1CCN(C(=O)c2cc(C(C)(C)C)sc2NC(=O)Nc2ccc(F)cc2Cl)C(C)(C)C1=O`, less than 5 µM; under `CC(C)(C)c1cc(NC(=O)Nc2ccc(F)c(F)c2Cl)c(C(=O)N2CCNC(=O)C2(C)CCO)s1` (stereo not given), less than 5 µM.
Same read-out and setting: for `CONC(=O)CN1CCN(C(=O)c2cc(C(C)(C)C)sc2NC(=O)Nc2cccc(Cl)c2Cl)C(C)(CC(=O)NOC)C1=O` (stereo not given) the value was less than 5 µM; for `CC(C)(C)c1cc(C(=O)N2CCNC(=O)C2(C)CCO)c(NC(=O)Nc2cccc(Cl)c2Cl)[nH]1` (stereo not given), less than 5 µM; for `CC(C)(C)c1nc(C(=O)N2CCNC(=O)CC2)c(NC(=O)Nc2cccc(Cl)c2Cl)s1`, less than 5 µM.
In turn, `CN(C)CCN1CCN(C(=O)c2nc(C(C)(C)C)sc2NC(=O)Nc2cccc(Cl)c2Cl)CCC1=O` came in with a 50% inhibitory concentration (IC50) of less than 5 µM.
In turn, `COC(=O)CC1(C)C(=O)NCCN1C(=O)c1cc(C(C)(C)C)sc1NC(=O)Nc1ccc(F)c(Cl)c1Cl` (stereo not given) had a concentration for half-maximal inhibition (IC50) of less than 5 µM.
In turn, `CC(C)(C)c1cc(C(=O)N2CCNC(=O)C2(C)C)c(NC(=O)Nc2ccc(F)c(Cl)c2Cl)s1` displayed a 50% inhibitory concentration (IC50) of less than 5 µM.
Turning to `CC(=O)N1CCN(C(=O)c2cc(C(C)(C)C)sc2NC(=O)Nc2cccc(Cl)c2Cl)CC1`, the 50% inhibitory concentration (IC50) was less than 5 µM.
Compound `CC(C)(C)c1cc(C(=O)N2CCNC(=O)C2(C)C)c(NC(=O)Nc2ccc(C#N)c(Cl)c2Cl)s1` came in with an IC50 of less than 5 µM.
`CC(C)(C)c1nc(C(=O)N2CCNC(=O)C2)c(NC(=O)Nc2cccc(Cl)c2Cl)s1` showed an IC50 of less than 5 µM.
The compound `COC(=O)CC1(C)C(=O)NCCN1C(=O)c1cc(C(C)(C)C)sc1NC(=O)Nc1cccc(Cl)c1Cl` (stereo not given) displayed an IC50 of less than 5 µM.
Same read-out and setting: for `CCC1C(=O)NCCN1C(=O)c1cc(C(C)(C)C)sc1NC(=O)Nc1ccc(F)c(Cl)c1Cl` (stereo not given) the value was less than 5 µM; for `CC(C)(C)c1cc(C(=O)N2CCNC(=O)C2(C)C)c(NC(=O)Nc2ccc(Cl)cc2Cl)s1`, less than 5 µM.
Still for that read-out and setting: for `Cc1cccc(NC(=O)Nc2sc(C(C)(C)C)cc2C(=O)N2CCN(CCN(C)C)C(=O)C2(C)C)c1Cl` the value was less than 5 µM; for `CC(C)(C)c1cc(C(=O)N2CCNC(=O)C2(C)C)c(NC(=O)Nc2ccc3c(c2)OCO3)s1`, less than 5 µM; for `COC(=O)CCN1CCN(C(=O)c2cc(C(C)(C)C)sc2NC(=O)Nc2cccc(Cl)c2Cl)C(C)(C)C1=O`, less than 5 µM.
As for `CC(C)(C)c1cc(NC(=O)Nc2ccc(F)c(Cl)c2Cl)c(C(=O)N2CCNC(=O)C2(C)C)[nH]1`, the IC50 was less than 5 µM.
For the compound `Cc1ccccc1NC(=O)Nc1sc(C(C)(C)C)cc1C(=O)N1CCC(=O)N(CCN(C)C)CC1`, the IC50 was less than 5 µM.
As for `CC(C)(C)c1cc(NC(=O)Nc2cccc(Cl)c2Cl)c(C(=O)N2CCNC(=O)CC2)[nH]1`, the IC50 is less than 5 µM.
Same read-out and setting: under `CC(C)(C)c1cc(NC(=O)Nc2ccc(F)c(Cl)c2Cl)c(C(=O)N2CCNC(=O)C2(C)C)o1` stands less than 5 µM; under `CC(C)(C)c1cc(C(=O)N2CCNC(=O)C2(C)C)c(NC(=O)Nc2ccc3c(c2Cl)OCO3)s1`, less than 5 µM; under `CN(C)C(=O)CN1CCN(C(=O)c2cc(C(C)(C)C)sc2NC(=O)Nc2cccc(Cl)c2Cl)C(C)(C)C1=O`, less than 5 µM.
The same measure, in the same setting: for `CC1(C)OCC(CN2CCN(C(=O)c3nc(C(C)(C)C)sc3NC(=O)Nc3cccc(Cl)c3Cl)CCC2=O)O1` (stereo not given) the value was less than 5 µM; for `CC(C)(C)c1cc(C(=O)N2CCNC(=O)CC2)c(NC(=O)Nc2ccc(OC(F)F)c(Cl)c2Cl)s1`, less than 5 µM.
Turning to `Cc1c(F)cccc1NC(=O)Nc1sc(C(C)(C)C)cc1C(=O)N1CCNC(=O)C1(C)CCO` (stereo not given), the IC50 is less than 5 µM.
On the same count and under the same terms, for `CC(C)(C)c1cc(C(=O)N2CCNC(=O)CC2)c(NC(=O)Nc2ccc(Cl)c(Cl)c2Cl)s1` the value was less than 5 µM; for `CN(C)CCN(C)C(=O)CN1CCN(C(=O)c2cc(C(C)(C)C)sc2NC(=O)Nc2cccc(Cl)c2Cl)C(C)(C)C1=O`, less than 5 µM.
`CC(C)(C)c1cc(C(=O)N2CCCC(O)C2)c(NC(=O)Nc2cccc(Cl)c2Cl)s1` (stereo not given) registered a concentration for half-maximal inhibition (IC50) of less than 5 µM.
Still for that read-out and setting: for `CC(C)(C)c1cc(C(=O)N2CCNC(=O)C2(C)C)c(NC(=O)Nc2c(Cl)cncc2Cl)s1` the value was less than 5 µM.
Still for that read-out and setting: under `CN(C)CCN1CCN(C(=O)c2cc(C(C)(C)C)sc2NC(=O)Nc2ccccc2C(C)(C)C)CCC1=O` stands less than 5 µM; under `CN(C)CCN1CCN(C(=O)c2cc(C(C)(C)C)sc2NC(=O)Nc2ccc(F)cc2Cl)C(C)(C)C1=O`, less than 5 µM; under `CN(C)CCNC(=O)CN1CCN(C(=O)c2nc(C(C)(C)C)sc2NC(=O)Nc2cccc(Cl)c2Cl)C(C)(C)C1=O`, less than 5 µM.
The same measure, in the same setting: under `CCC1(C)C(=O)N(CC(=O)NCCN(C)C)CCN1C(=O)c1cc(C(C)(C)C)sc1NC(=O)Nc1ccc(F)cc1Cl` (stereo not given) stands less than 5 µM; under `CN(C)CCN1CCN(C(=O)c2sc(C(C)(C)C)cc2NC(=O)Nc2cccc(Cl)c2Cl)C(C)(C)C1=O`, less than 5 µM.

The assay is the same for the next values; noted with them: concentration not given here.
The inhibition is the drop in the measured response relative to a control, in per cent. The low end stands for a response near the control, the high end for a response far below the control. The compound `CC(C)(C)c1cc(C(=O)N2CCNS(=O)(=O)CC2)c(NC(=O)Nc2ccc(C#N)cc2C(F)(F)F)s1` displayed an inhibition of 76 to 100%.
Compound `CC(C)(C)c1cc(C(=O)N2CCNS(=O)(=O)CC2)c(NC(=O)Nc2ccc3ocnc3c2)s1` yielded an inhibition of 76 to 100%.
In turn, `COC(=O)CC1C(=O)NCCN1C(=O)c1cc(C(C)(C)C)sc1NC(=O)Nc1ccc2ccccc2c1` (stereo not given) registered an inhibition of 76 to 100%.
The same measure, in the same setting: under `CC(C)(C)c1cc(NC(=O)Nc2ccc(Cl)c(Cl)c2)c(C(=O)N2CCNC(=O)CC2)s1` stands 76 to 100%; under `CC(C)(C)c1cc(C(=O)N2CCNS(=O)(=O)CC2)c(NC(=O)Nc2ccc(C#N)c(Cl)c2)s1`, 76 to 100%.
Still for that read-out and setting: for `COc1ccc(NC(=O)Nc2sc(C(C)(C)C)cc2C(=O)N2CCNC(=O)CC2)cc1Cl` the value was 76 to 100%.
`CC1C(=O)NCCN1C(=O)c1cc(C(C)(C)C)sc1NC(=O)Nc1ccc2ccccc2c1` (stereo not given) had an inhibition of 76 to 100%.
Compound `CC(C)(C)c1cc(C(=O)N2CCNC(=O)C(N)C2)c(NC(=O)Nc2cccc(Cl)c2Cl)s1` (stereo not given) showed an inhibition of 76 to 100%.
The compound `CC(C)(C)c1cc(C(=O)N2CCNS(=O)(=O)CC2)c(NC(=O)NC2(c3ccccc3)CC2)s1` yielded an inhibition of 26 to 50%.
As to `CC(C)(C)c1cc(C(=O)N2CCC(=O)N(CCC(N)=O)CC2)c(NC(=O)Nc2cccc(Cl)c2Cl)s1`, the inhibition was in the range of 76 to 100%.
`CC(C)(C)c1cc(NC(=O)Nc2cccc(Cl)c2Cl)c(C(=O)N2CCNC(=O)CC2)s1`: the inhibition lay in the range of 76 to 100%.
